Experiments:
[1] = molecular target: T1, rat TRPA1 (Rattus norvegicus, UniProt Q6RI86); assay: Elevation of intracellular Ca2+ (Fluo-4) in HEK-293 cells stably transfected with rat TRPA1; agonist and antagonist/desensitizing behaviour; assay type: cell-based
T1 construct: expressed in transfected cells; host or cells: HEK-293
Description: Assay of rat TRPA1, TRPV2, TRPV3, TRPV4, TRPM8 or human TRPV1 mediated elevation of intracellular Ca^2+ in transfected HEK-293 cells are been performed as described. Briefly, human embryonic kidney (HEK-293) cells, stably transfected with rat TRPA1, TRPV2, TRPV3, TRPV4, TRPM8 or human TRPV1 (selected by Geneticin 600 μg mL^−1) or not transfected, were cultured in EMEM + 2 mM Glutamine + 1% Non-Essential Amino Acids (NEAA) + 10% FBS and maintained at 37 °C with 5% CO2. Stable transfections were checked by quantitative real-time polymerase chain reaction (PCR), quantitative real-time PCR was performed by an iCycler-iQ (Bio-Rad, Hercules, CA, USA) in a 20 μL reaction mixture containing the following: 10 μL iQ SYBR Green Supermix 2X (Bio-Rad), 20 ng of cDNA (calculated on the basis of the retro-transcribed RNA), and 330 nM for each primer. Optimized primers for SYBR Green analysis (and relative TaOpt) and optimum annealing temperatures were designed by Allele-Id software version 7.0 (Biosoft International, Palo Alto, CA, USA) and were synthesized (HPLC-purification grade) by MWG-Biotech AG (Ebersberg, Germany). Assays were performed in quadruplicate (maximal ΔCt of replicate samples, <0.5). Relative expression analysis, correct for PCR efficiency and normalized with respect to reference genes β-actin and glyceraldehyde 3-phosphate dehydrogenase, was performed by GENEX software (Bio-Rad). […] The day of the experiment the cells were loaded with Fluo-4 AM (4 μM in DMSO containing 0.02% Pluronic F-127) for 1 h in the dark at room temperature, rinsed and resuspended in Tyrode’s solution (145 mM NaCl, 2.5 mM KCl, 1.5 mM CaCl2, 1.2 mM MgCl2, 10 mM D-glucose, and 10 mM HEPES, pH 7.4), finally transferred to a quartz cuvette of a spectrofluorimeter (Perkin-Elmer LS50B; λEX = 488 nm, λEM = 516 nm) equipped with PTP-1 Fluorescence Peltier System (PerkinElmer Life and Analytical Sciences, Waltham, MA, USA) under continuous stirring. Cell fluorescence before and after the addition of various concentrations of test compounds and extracts were measured normalizing the effects against the response to ionomycin (4 µM). The values of the effect on [Ca^2+]i in HEK-293 cells not transfected are used as baseline and subtracted from the values obtained from transfected cells. […] The potency of the compounds (EC50 values) are determined as the concentration required to produce half-maximal increases in [Ca^2+]i. In TRPV3 assay TRPV3-expressing HEK293 cells were first sensitized with the structurally unrelated agonist 2-aminoethoxydiphenyl borate (100 μM). Antagonist/desensitizing behaviour is evaluated against the agonist of the TRP analyzed by adding the compounds directly in the quartz cuvette 5 min before stimulation of cells with the agonist. […] In order to assess functional antagonism of TRPA1 channels, AP18, 4-(4-chlorophenyl)-3-methyl-3-buten-2-one oxime […] Dose-response curve fitting (sigmoidal dose-response variable slope) and parameter estimation were performed with Graph-Pad Prism8® (GraphPad Software Inc., San Diego, CA, USA). All determinations were performed at least in triplicate.

[2] = molecular target: T2, human TRPV1 (Homo sapiens, UniProt Q8NER1); assay: Elevation of intracellular Ca2+ (Fluo-4) in HEK-293 cells stably transfected with human TRPV1; assay type: cell-based
T2 construct: expressed in transfected cells; host or cells: HEK-293
T2 sequence (Q8NER1 whole entry): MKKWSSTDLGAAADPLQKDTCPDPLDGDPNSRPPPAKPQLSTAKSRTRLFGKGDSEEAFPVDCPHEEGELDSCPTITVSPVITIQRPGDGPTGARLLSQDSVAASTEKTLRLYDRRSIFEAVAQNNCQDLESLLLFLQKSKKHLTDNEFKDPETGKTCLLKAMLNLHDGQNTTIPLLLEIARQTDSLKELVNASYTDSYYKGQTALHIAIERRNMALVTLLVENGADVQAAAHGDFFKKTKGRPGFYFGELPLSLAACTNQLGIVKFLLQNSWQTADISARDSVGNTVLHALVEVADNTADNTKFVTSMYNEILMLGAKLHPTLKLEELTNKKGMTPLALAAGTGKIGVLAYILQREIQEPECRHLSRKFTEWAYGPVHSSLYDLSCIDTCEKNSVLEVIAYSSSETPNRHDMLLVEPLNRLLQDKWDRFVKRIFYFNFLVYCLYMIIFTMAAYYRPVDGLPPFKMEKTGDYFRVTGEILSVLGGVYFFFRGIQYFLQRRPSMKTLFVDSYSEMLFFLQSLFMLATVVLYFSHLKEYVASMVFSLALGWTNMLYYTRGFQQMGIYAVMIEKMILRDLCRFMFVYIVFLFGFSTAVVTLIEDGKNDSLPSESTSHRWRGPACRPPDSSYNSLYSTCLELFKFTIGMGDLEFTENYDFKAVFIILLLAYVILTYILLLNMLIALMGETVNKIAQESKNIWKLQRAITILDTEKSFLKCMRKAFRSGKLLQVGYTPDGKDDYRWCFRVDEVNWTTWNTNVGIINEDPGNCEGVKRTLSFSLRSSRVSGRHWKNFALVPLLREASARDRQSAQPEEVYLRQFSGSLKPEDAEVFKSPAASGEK
Description: Assay of rat TRPA1, TRPV2, TRPV3, TRPV4, TRPM8 or human TRPV1 mediated elevation of intracellular Ca^2+ in transfected HEK-293 cells are been performed as described. Briefly, human embryonic kidney (HEK-293) cells, stably transfected with rat TRPA1, TRPV2, TRPV3, TRPV4, TRPM8 or human TRPV1 (selected by Geneticin 600 μg mL^−1) or not transfected, were cultured in EMEM + 2 mM Glutamine + 1% Non-Essential Amino Acids (NEAA) + 10% FBS and maintained at 37 °C with 5% CO2. Stable transfections were checked by quantitative real-time polymerase chain reaction (PCR), quantitative real-time PCR was performed by an iCycler-iQ (Bio-Rad, Hercules, CA, USA) in a 20 μL reaction mixture containing the following: 10 μL iQ SYBR Green Supermix 2X (Bio-Rad), 20 ng of cDNA (calculated on the basis of the retro-transcribed RNA), and 330 nM for each primer. Optimized primers for SYBR Green analysis (and relative TaOpt) and optimum annealing temperatures were designed by Allele-Id software version 7.0 (Biosoft International, Palo Alto, CA, USA) and were synthesized (HPLC-purification grade) by MWG-Biotech AG (Ebersberg, Germany). Assays were performed in quadruplicate (maximal ΔCt of replicate samples, <0.5). Relative expression analysis, correct for PCR efficiency and normalized with respect to reference genes β-actin and glyceraldehyde 3-phosphate dehydrogenase, was performed by GENEX software (Bio-Rad). […] The day of the experiment the cells were loaded with Fluo-4 AM (4 μM in DMSO containing 0.02% Pluronic F-127) for 1 h in the dark at room temperature, rinsed and resuspended in Tyrode’s solution (145 mM NaCl, 2.5 mM KCl, 1.5 mM CaCl2, 1.2 mM MgCl2, 10 mM D-glucose, and 10 mM HEPES, pH 7.4), finally transferred to a quartz cuvette of a spectrofluorimeter (Perkin-Elmer LS50B; λEX = 488 nm, λEM = 516 nm) equipped with PTP-1 Fluorescence Peltier System (PerkinElmer Life and Analytical Sciences, Waltham, MA, USA) under continuous stirring. Cell fluorescence before and after the addition of various concentrations of test compounds and extracts were measured normalizing the effects against the response to ionomycin (4 µM). The values of the effect on [Ca^2+]i in HEK-293 cells not transfected are used as baseline and subtracted from the values obtained from transfected cells. […] The potency of the compounds (EC50 values) are determined as the concentration required to produce half-maximal increases in [Ca^2+]i. In TRPV3 assay TRPV3-expressing HEK293 cells were first sensitized with the structurally unrelated agonist 2-aminoethoxydiphenyl borate (100 μM). Antagonist/desensitizing behaviour is evaluated against the agonist of the TRP analyzed by adding the compounds directly in the quartz cuvette 5 min before stimulation of cells with the agonist. […]

[3] = molecular target: T3, rat TRPV4 (Rattus norvegicus, UniProt Q9ERZ8); assay: Elevation of intracellular Ca2+ (Fluo-4) in HEK-293 cells stably transfected with rat TRPV4; assay type: cell-based
T3 construct: expressed in transfected cells; host or cells: HEK-293
T3 sequence (Q9ERZ8 whole entry): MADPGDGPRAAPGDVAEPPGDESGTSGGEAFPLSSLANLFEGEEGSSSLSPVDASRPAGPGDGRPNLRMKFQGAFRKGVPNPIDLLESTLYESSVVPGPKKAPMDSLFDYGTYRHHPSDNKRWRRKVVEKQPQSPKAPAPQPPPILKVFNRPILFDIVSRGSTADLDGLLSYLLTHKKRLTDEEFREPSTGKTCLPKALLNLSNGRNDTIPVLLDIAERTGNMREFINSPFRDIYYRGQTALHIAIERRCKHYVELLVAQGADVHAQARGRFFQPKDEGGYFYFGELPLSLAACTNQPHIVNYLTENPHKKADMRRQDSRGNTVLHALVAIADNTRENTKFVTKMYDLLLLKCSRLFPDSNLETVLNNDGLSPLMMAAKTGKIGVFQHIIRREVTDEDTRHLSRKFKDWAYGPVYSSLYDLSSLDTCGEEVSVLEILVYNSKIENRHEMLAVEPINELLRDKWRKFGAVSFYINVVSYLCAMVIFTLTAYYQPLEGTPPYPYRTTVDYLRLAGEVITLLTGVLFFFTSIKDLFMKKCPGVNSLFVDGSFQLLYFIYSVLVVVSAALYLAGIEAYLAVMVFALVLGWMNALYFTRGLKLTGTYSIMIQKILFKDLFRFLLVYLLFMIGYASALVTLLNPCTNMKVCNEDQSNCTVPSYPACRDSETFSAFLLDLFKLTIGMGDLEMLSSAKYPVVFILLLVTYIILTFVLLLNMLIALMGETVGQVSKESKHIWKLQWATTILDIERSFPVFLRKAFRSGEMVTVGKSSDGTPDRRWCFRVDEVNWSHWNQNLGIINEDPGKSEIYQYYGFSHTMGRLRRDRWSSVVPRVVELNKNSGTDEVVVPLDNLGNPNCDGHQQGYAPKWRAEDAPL
Description: (§1) Assay of rat TRPA1, TRPV2, TRPV3, TRPV4, TRPM8 or human TRPV1 mediated elevation of intracellular Ca^2+ in transfected HEK-293 cells are been performed as described. Briefly, human embryonic kidney (HEK-293) cells, stably transfected with rat TRPA1, TRPV2, TRPV3, TRPV4, TRPM8 or human TRPV1 (selected by Geneticin 600 μg mL^−1) or not transfected, were cultured in EMEM + 2 mM Glutamine + 1% Non-Essential Amino Acids (NEAA) + 10% FBS and maintained at 37 °C with 5% CO2. Stable transfections were checked by quantitative real-time polymerase chain reaction (PCR), quantitative real-time PCR was performed by an iCycler-iQ (Bio-Rad, Hercules, CA, USA) in a 20 μL reaction mixture containing the following: 10 μL iQ SYBR Green Supermix 2X (Bio-Rad), 20 ng of cDNA (calculated on the basis of the retro-transcribed RNA), and 330 nM for each primer. […] The day of the experiment the cells were loaded with Fluo-4 AM (4 μM in DMSO containing 0.02% Pluronic F-127) for 1 h in the dark at room temperature, rinsed and resuspended in Tyrode’s solution (145 mM NaCl, 2.5 mM KCl, 1.5 mM CaCl2, 1.2 mM MgCl2, 10 mM D-glucose, and 10 mM HEPES, pH 7.4), finally transferred to a quartz cuvette of a spectrofluorimeter (Perkin-Elmer LS50B; λEX = 488 nm, λEM = 516 nm) equipped with PTP-1 Fluorescence Peltier System (PerkinElmer Life and Analytical Sciences, Waltham, MA, USA) under continuous stirring. […]

[4] = molecular target: T4, rat TRPV3 (Rattus norvegicus, UniProt Q4QYD9); assay: Elevation of intracellular Ca2+ (Fluo-4) in HEK-293 cells stably transfected with rat TRPV3; assay type: cell-based; conditions: TRPV3, against reference agonist thymol 100 μM
T4 construct: expressed in transfected cells; host or cells: HEK-293
T4 sequence (Q4QYD9 1-791): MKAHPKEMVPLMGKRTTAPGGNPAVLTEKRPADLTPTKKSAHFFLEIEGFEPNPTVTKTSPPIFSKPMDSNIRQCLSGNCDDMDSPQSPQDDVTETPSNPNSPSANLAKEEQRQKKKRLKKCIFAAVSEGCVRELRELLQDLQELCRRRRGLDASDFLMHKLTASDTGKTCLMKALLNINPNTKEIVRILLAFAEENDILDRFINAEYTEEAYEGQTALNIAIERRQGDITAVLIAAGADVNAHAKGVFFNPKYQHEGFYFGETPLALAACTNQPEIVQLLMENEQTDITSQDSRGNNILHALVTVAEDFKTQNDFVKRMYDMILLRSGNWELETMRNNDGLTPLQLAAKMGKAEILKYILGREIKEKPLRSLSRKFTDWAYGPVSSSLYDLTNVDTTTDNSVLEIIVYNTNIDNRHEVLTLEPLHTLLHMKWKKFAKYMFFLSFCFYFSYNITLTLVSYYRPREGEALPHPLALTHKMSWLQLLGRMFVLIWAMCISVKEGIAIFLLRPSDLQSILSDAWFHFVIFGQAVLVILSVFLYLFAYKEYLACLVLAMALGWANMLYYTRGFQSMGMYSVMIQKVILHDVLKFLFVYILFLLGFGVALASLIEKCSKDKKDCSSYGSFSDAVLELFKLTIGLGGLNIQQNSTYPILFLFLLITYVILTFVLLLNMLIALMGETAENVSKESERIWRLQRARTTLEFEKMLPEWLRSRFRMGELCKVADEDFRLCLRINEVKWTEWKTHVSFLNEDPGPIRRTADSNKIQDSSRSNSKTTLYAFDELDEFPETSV
Description: as §1

[5] = system: Amyotrophic Lateral Sclerosis (ALS) transgenic model; parameters: method as in PMID 26075221; conditions: cited from earlier work
[6] = system: not transfected HEK-293 cells; assay: Effect on [Ca2+]i in not transfected HEK-293 cells (baseline); assay type: cell-based, human
Description: Compound and extracts’ effects on intracellular Ca^2+ concentration ([Ca^2+]i) were determined using the selective intracellular fluorescent probe for Ca^2+ Fluo-4. Assay of rat TRPA1, TRPV2, TRPV3, TRPV4, TRPM8 or human TRPV1 mediated elevation of intracellular Ca^2+ in transfected HEK-293 cells are been performed as described. Briefly, human embryonic kidney (HEK-293) cells, stably transfected with rat TRPA1, TRPV2, TRPV3, TRPV4, TRPM8 or human TRPV1 (selected by Geneticin 600 μg mL^−1) or not transfected, were cultured in EMEM + 2 mM Glutamine + 1% Non-Essential Amino Acids (NEAA) + 10% FBS and maintained at 37 °C with 5% CO2. Stable transfections were checked by quantitative real-time polymerase chain reaction (PCR), quantitative real-time PCR was performed by an iCycler-iQ (Bio-Rad, Hercules, CA, USA) in a 20 μL reaction mixture containing the following: 10 μL iQ SYBR Green Supermix 2X (Bio-Rad), 20 ng of cDNA (calculated on the basis of the retro-transcribed RNA), and 330 nM for each primer. […] Cell fluorescence before and after the addition of various concentrations of test compounds and extracts were measured normalizing the effects against the response to ionomycin (4 µM). […] The potency of the compounds (EC50 values) are determined as the concentration required to produce half-maximal increases in [Ca^2+]i. […]

[7] = molecular target: T5, rat TRPM8 (Rattus norvegicus, UniProt Q8R455); assay: Elevation of intracellular Ca2+ (Fluo-4) in HEK-293 cells stably transfected with rat TRPM8; assay type: cell-based
T5 construct: expressed in transfected cells; host or cells: HEK-293
T5 sequence (Q8R455 whole entry): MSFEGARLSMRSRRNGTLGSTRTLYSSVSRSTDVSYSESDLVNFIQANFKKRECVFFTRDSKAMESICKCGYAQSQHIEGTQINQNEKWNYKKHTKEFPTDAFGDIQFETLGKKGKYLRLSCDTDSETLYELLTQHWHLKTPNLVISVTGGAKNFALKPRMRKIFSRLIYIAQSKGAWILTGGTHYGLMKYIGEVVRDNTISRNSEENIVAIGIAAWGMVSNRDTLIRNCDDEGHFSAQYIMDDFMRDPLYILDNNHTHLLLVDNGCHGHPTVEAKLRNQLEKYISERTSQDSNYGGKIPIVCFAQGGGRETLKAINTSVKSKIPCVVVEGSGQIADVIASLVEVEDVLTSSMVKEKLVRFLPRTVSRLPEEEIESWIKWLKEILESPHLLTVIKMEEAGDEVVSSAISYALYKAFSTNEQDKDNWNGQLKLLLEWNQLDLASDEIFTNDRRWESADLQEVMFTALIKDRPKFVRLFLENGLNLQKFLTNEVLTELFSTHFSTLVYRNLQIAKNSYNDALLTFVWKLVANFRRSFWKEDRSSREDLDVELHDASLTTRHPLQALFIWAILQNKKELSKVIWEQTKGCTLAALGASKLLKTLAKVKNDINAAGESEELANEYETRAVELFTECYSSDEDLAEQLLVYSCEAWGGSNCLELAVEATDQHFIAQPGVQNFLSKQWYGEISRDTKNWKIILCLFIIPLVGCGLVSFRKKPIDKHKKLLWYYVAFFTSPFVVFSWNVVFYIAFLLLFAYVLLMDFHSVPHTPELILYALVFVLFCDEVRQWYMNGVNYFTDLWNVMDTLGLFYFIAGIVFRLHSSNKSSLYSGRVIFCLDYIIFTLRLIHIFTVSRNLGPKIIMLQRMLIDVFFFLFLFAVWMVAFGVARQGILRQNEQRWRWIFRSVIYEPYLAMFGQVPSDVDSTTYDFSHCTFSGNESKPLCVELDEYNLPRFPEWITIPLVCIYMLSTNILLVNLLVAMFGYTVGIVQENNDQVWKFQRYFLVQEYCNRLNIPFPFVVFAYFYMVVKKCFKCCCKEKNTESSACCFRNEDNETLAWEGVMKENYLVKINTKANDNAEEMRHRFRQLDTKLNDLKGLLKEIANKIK
Description: as §1

[8] = molecular target: T6, rat TRPV2 (Rattus norvegicus, UniProt Q9WUD2); assay: Elevation of intracellular Ca2+ (Fluo-4) in HEK-293 cells stably transfected with rat TRPV2; assay type: cell-based
T6 construct: expressed in transfected cells; host or cells: HEK-293
T6 sequence (Q9WUD2 1-761): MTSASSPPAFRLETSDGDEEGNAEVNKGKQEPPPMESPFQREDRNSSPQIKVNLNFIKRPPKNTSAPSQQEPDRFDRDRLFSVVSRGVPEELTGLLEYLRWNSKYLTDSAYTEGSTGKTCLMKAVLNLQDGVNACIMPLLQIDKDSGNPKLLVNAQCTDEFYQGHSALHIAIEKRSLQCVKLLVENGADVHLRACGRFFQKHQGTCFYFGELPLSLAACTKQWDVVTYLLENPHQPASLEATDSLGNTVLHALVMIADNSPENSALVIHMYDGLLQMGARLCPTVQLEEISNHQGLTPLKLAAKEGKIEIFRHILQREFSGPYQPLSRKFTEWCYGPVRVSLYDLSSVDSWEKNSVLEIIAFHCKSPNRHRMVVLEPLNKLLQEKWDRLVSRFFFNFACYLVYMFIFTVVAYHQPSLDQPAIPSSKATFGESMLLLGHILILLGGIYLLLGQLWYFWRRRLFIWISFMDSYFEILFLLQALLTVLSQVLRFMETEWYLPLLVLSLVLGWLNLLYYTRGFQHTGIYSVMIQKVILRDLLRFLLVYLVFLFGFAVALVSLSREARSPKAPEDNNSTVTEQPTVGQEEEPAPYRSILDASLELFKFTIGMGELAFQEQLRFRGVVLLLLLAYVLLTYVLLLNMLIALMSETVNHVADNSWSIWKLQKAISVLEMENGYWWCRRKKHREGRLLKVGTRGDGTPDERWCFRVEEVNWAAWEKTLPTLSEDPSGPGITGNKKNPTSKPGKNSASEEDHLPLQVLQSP
Description: as §1

T1 sequence (Q6RI86 whole entry): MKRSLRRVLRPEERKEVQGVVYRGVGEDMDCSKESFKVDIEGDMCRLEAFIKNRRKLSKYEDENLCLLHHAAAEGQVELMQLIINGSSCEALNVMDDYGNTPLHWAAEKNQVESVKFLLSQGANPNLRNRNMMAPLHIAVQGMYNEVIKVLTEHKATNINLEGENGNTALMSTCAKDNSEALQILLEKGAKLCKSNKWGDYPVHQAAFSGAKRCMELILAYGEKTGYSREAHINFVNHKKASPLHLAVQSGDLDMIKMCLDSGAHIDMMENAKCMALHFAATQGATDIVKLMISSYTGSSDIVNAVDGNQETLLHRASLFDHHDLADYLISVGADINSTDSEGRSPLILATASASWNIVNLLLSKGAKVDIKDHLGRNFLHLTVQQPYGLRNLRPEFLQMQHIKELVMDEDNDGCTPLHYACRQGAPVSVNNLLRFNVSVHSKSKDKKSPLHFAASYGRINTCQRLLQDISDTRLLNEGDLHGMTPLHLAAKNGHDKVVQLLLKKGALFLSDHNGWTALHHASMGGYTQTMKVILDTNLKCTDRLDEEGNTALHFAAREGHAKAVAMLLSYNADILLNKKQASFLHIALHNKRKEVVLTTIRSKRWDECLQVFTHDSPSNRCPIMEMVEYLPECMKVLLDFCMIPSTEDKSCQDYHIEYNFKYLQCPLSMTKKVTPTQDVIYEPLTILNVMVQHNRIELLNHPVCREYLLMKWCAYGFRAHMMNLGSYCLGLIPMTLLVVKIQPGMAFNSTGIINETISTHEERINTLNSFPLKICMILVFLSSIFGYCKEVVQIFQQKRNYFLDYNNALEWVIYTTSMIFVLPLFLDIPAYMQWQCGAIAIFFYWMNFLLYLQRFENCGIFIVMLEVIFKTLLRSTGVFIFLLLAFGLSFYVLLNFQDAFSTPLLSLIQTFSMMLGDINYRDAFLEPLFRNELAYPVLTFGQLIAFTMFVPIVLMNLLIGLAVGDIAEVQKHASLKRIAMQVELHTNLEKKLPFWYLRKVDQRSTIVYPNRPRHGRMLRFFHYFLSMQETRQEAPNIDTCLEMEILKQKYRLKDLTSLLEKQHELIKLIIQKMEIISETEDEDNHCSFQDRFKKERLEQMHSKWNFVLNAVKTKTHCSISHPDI

C[C@@H]1O[C@@H](Oc2ccc(CN=C=S)cc2)[C@H](O)[C@H](O)[C@H]1O [Moringin, 4-[(α-L-rhamnosyloxy)benzyl]isothiocyanate]
EC50 [1]: 3.14 ± 0.16 µM | IC50 [1]: 3.6 ± 0.05 µM | Effect of AITC 100 μM administered after pre-incubation with moringin ([1]; TRPA1-HEK293 cells, pre-incubation with moringin 50 μM): completely inhibited | Efficacy (% AITC 100 µM) ([1]; rTRPA1-HEK-293, percentage of the effect on [Ca2+]i of AITC 100 µM): 102.6 ± 1.1% | EC50 [2]: 20.4 ± 1.3 µM | IC50 [2]: > 50 µM | Efficacy (% Ionomycin 4 µM) ([2]; TRPV1): 46.8 ± 0.7% | Potency EC50 ([2]; TRPV1): weak | IC50 [3]: > 100 µM | IC50 [4]: > 100 µM | Delay of the disease onset [5]: about two weeks | Increase of [Ca2+]i in not transfected HEK-293 cells, % of the response in rTRPA1 HEK-293 cells [6]: < 10% | IC50 [7]: > 100 µM | IC50 [8]: > 100 µM

From paper PMC7070407, “Moringin, A Stable Isothiocyanate from Moringa oleifera, Activates the Somatosensory and Pain Receptor TRPA1 Channel In Vitro” (Molecules, 2020)
